The record followed here is US11261201B2 (priority 2018, dated 2022).

≈ marks a conversion by molar mass, not a printed value. Where a name gives a salt, the structure may show the parent alone. Read-outs that look alike come from different tables or passages of the source. Some results are limits rather than exact numbers.

One assay relates to H37RvMA. In words: Tuberculosis Alamar Blue/Resazurin assay (MIC). Type of assay: cell-based. Conditions: read-out: WT H37Rv MTB Activity. On the technique in general: Resazurin is reduced to fluorescent resorufin, in cell work by metabolically active cells.
In a further assay the test system is E. coli. In words: Gram negative MIC protocol (OD600, LB, 24 h). Conditions: for MIC: Escherichia coli.
The test system of another assay is A. baumannii. In words: Gram negative MIC protocol (OD600, LB, 24 h). Conditions: for MIC: Acinetobacter baumannii.
The mark [1] stands for this setting: Mycobacterium tuberculosis, H37RV.
The mark [2] stands for this setting: read-out: MIC E. coli delta-TolC LB Media, E. coli delta-TolC, LB media, OD600.
Where [3] appears, read: read-out: MIC WT E. coli LB Media, WT E. coli, LB media, OD600.
[4] abbreviates: read-out: MIC A. baumannii LB Media.
[5] abbreviates: Mycobacterium tuberculosis, H37RV, WT H37Rv MTB.
The mark [6] stands for this setting: read-out: MIC A. baumannii LB Media, A. baumannii, LB media, 24 h, OD600.
Setting [7] is: read-out: MIC E. coli delta-TolC LB Media, E. coli delta-TolC strain, LB media, 24 h, OD600.
Where [8] appears, read: read-out: MIC WT E. coli LB Media, wild-type E. coli, LB media, 24 h, OD600.

Protocol for A. baumannii: (§1) Overnight bacterial cultures were grown in LB with no added antibiotics at 37° C. with shaking. A 1:1000 dilution of these cultures into LB was exposed to concentration gradients of compounds in 96-well plates (100 μL per well assay volume). Resulting plates were incubated at 37° C. for 24 h without shaking, and OD600 was measured at the end of the incubation. MICs were determined as the lowest concentrations at which OD600 remained at baseline.
Protocol for E. coli: as §1

For `C1=CCC(CCNCc2ccccc2)CC1` (centres unmarked) [B156, N-benzyl-2-(cyclohex-3-enyl)ethanamine hydrochloride], the MIC was more than 150 µM with H37RvMA (setting [1]), 150 µM in the assay with E. coli (setting [2]), 150 µM in the assay with E. coli (setting [3]) and 150 µM in the assay with A. baumannii (setting [4]).
As to `Cc1cccc(C)c1CNCCC1=CCCCC1` [B73], the MIC with H37RvMA (setting [5]), with E. coli (setting [2]), in the assay with E. coli (setting [3]) and in the assay on A. baumannii (setting [6]) was more than 150 µM in each case.
For `c1ccc(CNCCC2CCCC2)cc1` [B128], the MIC in the assay with H37RvMA (setting [5]), in the assay with E. coli (setting [2]), with E. coli (setting [3]) and with A. baumannii (setting [6]) was more than 150 µM throughout.
For `Ic1cccc(CNCCC2CCCCC2)c1` [B348], the MIC in the assay on H37RvMA (setting [5]) is 150 µM (≈ 51.5 µg/mL); in the assay on E. coli (setting [7]) it was more than 150 µM; in the assay with E. coli (setting [8]), more than 150 µM; with A. baumannii (setting [6]), more than 150 µM.
Take `c1ccc(CNCCC23CCCCC2C3)cc1` (centres unmarked) [B182]: the MIC is 91 µM (≈ 20.9 µg/mL) in the assay on H37RvMA (setting [5]), more than 300 µM in the assay with E. coli (setting [2]), more than 300 µM in the assay on E. coli (setting [3]) and more than 300 µM with A. baumannii (setting [6]).
Turning to `OC(CNCc1ccccc1)c1cccc2ccccc12` (centres unmarked) [B19], the MIC with H37RvMA (WT H37Rv MTB) worked out at 150 µM (≈ 41.6 µg/mL). In the assay on E. coli (E. coli delta-TolC, LB media, OD600), the “MIC E. coli delta-TolC LB Media” value is more than 150 µM. The “MIC WT E. coli LB Media” value in the assay on E. coli (WT E. coli, LB media, OD600) is more than 150 µM. For the same compound, in the assay on A. baumannii (A. baumannii, LB media, OD600), the “MIC A. baumannii LB Media” value is more than 150 µM.
For the compound `CC(CC1CCCCC1)NCc1ccccc1OCC(=O)NCC1CCCO1` (centres unmarked) [B336], the MIC with H37RvMA (setting [5]) is more than 150 µM; with E. coli (setting [7]) it was 33 µM (≈ 12.8 µg/mL); with E. coli (setting [8]), more than 150 µM; with A. baumannii (setting [6]), more than 150 µM.
As for `NC(=O)c1ccccc1CNCCC1CCCCC1` [B259, 2-((2-cyclohexylethylamino)methyl)benzamide trifluoroacetate], the MIC was more than 150 µM in the assay on H37RvMA (setting [1]), 125 µM in the assay on E. coli (setting [7]), more than 150 µM with E. coli (setting [8]) and more than 150 µM in the assay with A. baumannii (setting [4]).
With `COc1cc(CC(C)NCc2ccccc2)ncn1` (centres unmarked) [B84], the MIC in the assay on H37RvMA (setting [1]), with E. coli (setting [2]), with E. coli (setting [3]) and in the assay on A. baumannii (setting [6]) was more than 150 µM in each case.
For the compound `CC(C)(Cc1ccc(C(F)(F)F)cc1)NCc1ccccc1` [B93], the MIC with H37RvMA (setting [1]), in the assay on E. coli (setting [2]), with E. coli (setting [3]) and in the assay on A. baumannii (setting [4]) was more than 150 µM in each case.
As for `CN1CC(COc2ccccc2CNCCC2=CCCCC2)OC1=O` (centres unmarked) [B371], the MIC was more than 150 µM with H37RvMA (setting [5]), 33 µM (≈ 11.4 µg/mL) with E. coli (setting [7]), more than 150 µM in the assay on E. coli (setting [8]) and more than 150 µM in the assay on A. baumannii (setting [6]).
Regarding `CNCc1cccc(CNCCC2CCCCC2)c1` [B420, 2-cyclohexyl-N-(3-((methylamino)methyl)benzyl)ethan-1-amine], the MIC with H37RvMA (setting [5]), in the assay on E. coli (setting [2]), with E. coli (setting [3]) and in the assay with A. baumannii (setting [6]) was more than 150 µM in each case.
As for `c1ccc(CNCC2C3CCc4ccccc4C32)cc1` (centres unmarked) [B45], the MIC with H37RvMA (setting [5]) is 91 µM (≈ 24 µg/mL); in the assay with E. coli (setting [2]), more than 150 µM; in the assay with E. coli (setting [3]), more than 150 µM; in the assay on A. baumannii (setting [6]), more than 150 µM.
`COCCCCOc1ccccc1CNC(C)CC1CCCCC1` (centres unmarked) [B277]: the MIC is more than 150 µM in the assay with H37RvMA (setting [5]), 4 µM (≈ 1.33 µg/mL) in the assay on E. coli (setting [7]), more than 150 µM in the assay on E. coli (setting [8]) and more than 150 µM with A. baumannii (setting [6]).
Consider `CC1(C)CCC2(CC2CNCc2ccccc2)c2ccccc21` (centres unmarked) [B109], for which the MIC was 55 µM (≈ 16.8 µg/mL) in the assay on H37RvMA (setting [5]), 91 µM (≈ 27.8 µg/mL) with E. coli (setting [2]), more than 150 µM with E. coli (setting [3]) and 150 µM (≈ 45.8 µg/mL) with A. baumannii (setting [6]).
In the case of `C[C@H](NCc1ccccc1)[C@@H]1C[C@H]1c1ccccc1` [B86], the MIC with H37RvMA (setting [5]), in the assay on E. coli (setting [2]), in the assay on E. coli (setting [3]) and with A. baumannii (setting [6]) was more than 150 µM throughout.
In the case of `c1ccc(C2CC2)c(CNCCC2CCCCC2)c1` [B233, 2-cyclohexyl-N-(2-cyclopropylbenzyl)ethanamine hydrochloride], the MIC in the assay with H37RvMA (setting [5]) stood at 91 µM; in the assay on E. coli (setting [7]), 10 µM; with E. coli (setting [8]), 300 µM; in the assay with A. baumannii (setting [6]), 170 µM.
With `CC(CC1CCCCC1)NCc1ccccc1OCCCN1CCOC1=O` (centres unmarked) [B264], the MIC in the assay on H37RvMA (setting [5]) is more than 150 µM; with E. coli (setting [7]), 3 µM (≈ 1.12 µg/mL); in the assay on E. coli (setting [8]), 150 µM (≈ 56.2 µg/mL); in the assay on A. baumannii (setting [6]), 150 µM (≈ 56.2 µg/mL).
In the case of `C[C@H](CC1CCCCC1)NCc1ccccc1` [B95], the MIC in the assay on H37RvMA (setting [1]) was 55 µM (≈ 12.7 µg/mL); in the assay with E. coli (setting [2]), more than 150 µM; with E. coli (setting [3]), more than 150 µM; with A. baumannii (setting [4]) it was more than 150 µM.
In the case of `CCOC(COc1ccccc1CNC(C)CC1CCCCC1)OCC` (centres unmarked) [B298], the MIC was more than 150 µM with H37RvMA (setting [5]), 12 µM (≈ 4.36 µg/mL) in the assay with E. coli (setting [7]), more than 150 µM in the assay on E. coli (setting [8]) and more than 150 µM in the assay with A. baumannii (setting [6]).
Take `C[C@@H](NCc1ccccc1)C12CC3CC(CC(C3)C1)C2` [B196]: the MIC was 55 µM (≈ 14.8 µg/mL) in the assay with H37RvMA (setting [5]), 300 µM (≈ 80.8 µg/mL) with E. coli (setting [2]), more than 300 µM in the assay on E. coli (setting [3]) and more than 300 µM in the assay with A. baumannii (setting [6]).
Regarding `c1ccc(CNCC2CC3CCC2C3)cc1` (centres unmarked) [B43], the MIC in the assay with H37RvMA (setting [5]), in the assay with E. coli (setting [2]), in the assay with E. coli (setting [3]) and in the assay with A. baumannii (setting [6]) was more than 150 µM throughout.
As for `CC(CC1CCCCC1)NCc1ccccc1OCC(O)C(C)C` (centres unmarked) [B342], the MIC turned out to be 91 µM (≈ 30.3 µg/mL) with H37RvMA (setting [5]), 4 µM (≈ 1.33 µg/mL) in the assay with E. coli (setting [7]), 150 µM (≈ 50 µg/mL) with E. coli (setting [8]) and 150 µM (≈ 50 µg/mL) with A. baumannii (setting [6]).
For the compound `NS(=O)(=O)Cc1ccccc1CNCCC1CCCCC1` [B380], the MIC is more than 150 µM in the assay with H37RvMA (setting [5]), 12 µM (≈ 3.73 µg/mL) in the assay with E. coli (setting [7]), 33 µM (≈ 10.2 µg/mL) in the assay on E. coli (setting [8]) and more than 150 µM with A. baumannii (setting [6]).
As to `CN1CC2CCC1C(CNCc1ccccc1)C2` (centres unmarked) [B116], the MIC with H37RvMA (setting [1]), in the assay with E. coli (setting [2]), with E. coli (setting [3]) and with A. baumannii (setting [6]) was more than 150 µM in each case.
As to `CC(CC1CCCCC1)NCc1ccccc1CS(=O)(=O)N[C@H]1C[C@H](C(=O)O)C1` (stereo partly drawn) [B456, (1S,3S)-3-(((2-(((1-cyclohexylpropan-2-yl)amino)methyl)phenyl)methyl)sulfonamido)cyclobutane-1-carboxylic acid], the MIC in the assay on H37RvMA (setting [5]) is more than 150 µM; with E. coli (setting [2]), 33 µM (≈ 13.9 µg/mL); in the assay with E. coli (setting [3]), more than 150 µM; in the assay on A. baumannii (setting [6]), more than 150 µM.
Regarding `CC(CC1CCCCC1)NCc1ccccc1OCC(=O)N1CCCC1` (centres unmarked) [B290], the MIC is more than 150 µM with H37RvMA (setting [5]), 33 µM (≈ 11.8 µg/mL) in the assay on E. coli (setting [7]), more than 150 µM with E. coli (setting [8]) and more than 150 µM with A. baumannii (setting [6]).
Take `CCOc1ccccc1CNC(C)CC1CCCCC1` (centres unmarked) [B293]: the MIC in the assay with H37RvMA (setting [5]) is more than 150 µM; in the assay with E. coli (setting [7]), 4 µM (≈ 1.1 µg/mL); in the assay with E. coli (setting [8]), 150 µM (≈ 41.3 µg/mL); in the assay on A. baumannii (setting [6]), more than 150 µM.
In the case of `CC(CC1CCCCC1)NCc1ccccc1OCC1CN(C2CC2)C(=O)O1` (centres unmarked) [B367], the MIC in the assay with H37RvMA (setting [5]) was more than 150 µM; in the assay with E. coli (setting [7]) it was 5 µM (≈ 1.93 µg/mL); in the assay on E. coli (setting [8]) it was 150 µM (≈ 58 µg/mL); with A. baumannii (setting [6]), 150 µM (≈ 58 µg/mL).
On to `COC(=O)C(CC1CCCCC1)NCc1ccccc1` (centres unmarked) [B203, methyl 2-(benzylamino)-3-cyclohexylpropanoate hydrochloride], for which the MIC with H37RvMA (setting [5]) is more than 150 µM; with E. coli (setting [7]), 170 µM; in the assay with E. coli (setting [8]), more than 300 µM; in the assay with A. baumannii (setting [6]) it was more than 300 µM.
For `COc1ccc(OCCCOc2ccccc2CNC(C)CC2CCCCC2)cc1` (centres unmarked) [B271], the MIC in the assay with H37RvMA (setting [5]) was 55 µM (≈ 22.6 µg/mL); in the assay with E. coli (setting [7]), 3 µM (≈ 1.23 µg/mL); in the assay with E. coli (setting [8]) it was 150 µM (≈ 61.7 µg/mL); in the assay on A. baumannii (setting [6]), 55 µM (≈ 22.6 µg/mL).
As for `c1ccc(CNCC2CCC2)cc1` [B135], the MIC in the assay on H37RvMA (setting [5]), in the assay on E. coli (setting [2]), with E. coli (setting [3]) and with A. baumannii (setting [6]) was more than 150 µM each time.
